As usually defined, the EC50 is the concentration needed to bring the measured effect to its halfway point. High values mean a less potent agent, low ones a more potent agent.

The results in this text go back to patent US8076352B2, “Administration of carboline derivatives useful in the treatment of cancer and other diseases” (PTC Therapeutics, Inc., priority 2004, dated 2011).

Molecules are shown by their SMILES.

One assay has as its system hypoxia-inducible endogenous VEGF expression in HeLa cells. As to the kind of experiment: Hypoxia-inducible endogenous VEGF expression, VEGF ELISA of conditioned media (dose-response EC50). The assay is classed as cell-based. Particulars: HeLa cells, hypoxic conditions (1% O2). The method, boiled down:
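HeLa cells were cultured 24-48 h under hypoxia (1% O2, 5% CO2, balance N2) with or without compound. Conditioned-media VEGF protein was measured by ELISA against a standard curve. EC50 and CC50 come from percentage-inhibition curves over, e.g., seven concentrations, with maximal inhibition set at 100%.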
Background: ELISA stands for enzyme-linked immunosorbent assay.
Regarding `O=C(Oc1ccc(F)cc1)N1CCc2c([nH]c3ccc(Br)cc23)C1c1ccc(C(F)(F)F)cc1` (stereo not shown) [Compound 426], the EC50 is under 8 nM.

The assay is the same for the next values; noted with them: Homo sapiens, HeLa cells, hypoxic conditions (1% O2).
Turning to `Clc1ccc2[nH]c3c(c2c1)CCNC3CCc1ccccc1` (stereo not shown) [Compound 416], the concentration giving a half-maximal response (EC50) was under 8 nM.

In turn, `O=C(Oc1ccc(Cl)cc1)N1CCc2c([nH]c3ccc(Cl)cc23)C1c1ccc(OCCCn2ccnn2)cc1` (stereo not shown) [Compound 417] displayed an EC50 of under 8 nM.

As for `COCCOc1ccc(C2c3[nH]c4ccc(Cl)cc4c3CCN2C(=O)Oc2ccc(Cl)cc2)cc1` (stereo not shown) [Compound 418], the half-maximal effective concentration (EC50) is under 8 nM.

With `COCCOc1ccc(C2c3[nH]c4ccc(Cl)cc4c3CCN2C(=O)OCc2ccccc2)cc1` (stereo not shown) [Compound 419], the concentration for a half-maximal effect (EC50) was under 8 nM.

For `CCOC(=O)N1CCc2c([nH]c3ccc(Br)cc23)C1c1ccc(CNCCOC)cc1` (stereo not shown) [Compound 420], the EC50 was under 8 nM.

In turn, `O=C1OCC(COc2ccc(C3c4[nH]c5ccc(Cl)cc5c4CCN3C(=O)Oc3ccc(Cl)cc3)cc2)O1` (stereo not shown) [Compound 421] gave an EC50 of under 8 nM.

Molecule `COCCOc1ccc(C2c3[nH]c4ccc(Cl)cc4c3CCN2C(=O)OCCF)cc1` (stereo not shown) [Compound 423] returned a 50% effective concentration (EC50) of under 8 nM.

With `CC(C)(C)OC(=O)N1CCCC1C(=O)Oc1ccc(C2c3[nH]c4ccc(Cl)cc4c3CCN2C(=O)OC(C)(C)C)cc1` (stereo not shown) [Compound 424], the EC50 was under 8 nM.

`CCOC(=O)N1CCc2c([nH]c3ccc(Br)cc23)C1c1ccc(C(=O)N2CCN(CC)CC2)cc1` (stereo not shown) [Compound 425]: the 50% effective concentration (EC50) was under 8 nM.

`O=C(Oc1ccc(Cl)cc1)N1CCc2c([nH]c3ccc(Cl)cc23)C1c1ccc(OCCCN2CCCC2)cc1` (stereo not shown) [Compound 429] showed an EC50 of under 8 nM.

`CCOC(=O)N1CCc2c([nH]c3ccc(Br)cc23)C1c1ccc(CO)cc1` (stereo not shown) [Compound 430] displayed a 50% effective concentration (EC50) of under 8 nM.

`COc1ccc(OC(=O)N2CCc3c([nH]c4ccc(Br)cc34)C2c2cnc(N(C)C)nc2)cc1` (stereo not shown) [Compound 431] registered an EC50 of under 8 nM.

As for `C=CCOc1ccc(C2c3[nH]c4ccc(Cl)cc4c3CCN2C(=O)Oc2ccc(OC)cc2)cc1` (stereo not shown) [Compound 432], the EC50 was under 8 nM.

Molecule `O=C(Oc1ccc(Cl)cc1)N1CCc2c([nH]c3ccc(Cl)cc23)C1c1ccc(OCCCN2CCCCC2)cc1` (stereo not shown) [Compound 433] had a concentration for a half-maximal effect (EC50) of under 8 nM.

The molecule `CCOC(=O)N1CCc2c([nH]c3ccc(Br)cc23)C1c1ccc(C(F)(F)F)cc1` (stereo not shown) [Compound 434] displayed a concentration for a half-maximal effect (EC50) of under 8 nM.

On to `CCOC(=O)N1CCc2c([nH]c3ccc(Br)cc23)C1c1cnc(N(C)C)nc1` (stereo not shown) [Compound 435], for which the concentration giving a half-maximal response (EC50) is under 8 nM.

Take `COCCOc1ccc(C2c3[nH]c4ccc(Cl)cc4c3CCN2C(=O)Oc2ccccc2)cc1` (stereo not shown) [Compound 436]: the concentration giving a half-maximal response (EC50) was under 8 nM.

As to `CCOC(=O)N1CCc2c([nH]c3ccc(Br)cc23)C1c1ccc(C(=O)NCCOC)cc1` (stereo not shown) [Compound 438], the concentration giving a half-maximal response (EC50) was under 8 nM.

Molecule `CC/C=C/CCC1c2[nH]c3ccc(Cl)cc3c2CCN1C(=O)OCC` (stereo not shown) [Compound 439] gave a concentration for a half-maximal effect (EC50) of under 8 nM.

On to `O=C(Oc1ccc(Cl)cc1)N1CCc2c([nH]c3ccc(Cl)cc23)C1c1ccc(NC2CCOCC2)cc1` (stereo not shown) [Compound 440], for which the EC50 is under 8 nM.

As for `CCOC(=O)N1CCc2c([nH]c3ccc(Cl)cc23)C1c1ccc(C(=O)N2COCC2(C)C)cc1` (stereo not shown) [Compound 441], the EC50 was 8 to 40 nM.

Turning to `CCOC(=O)N1CCc2c([nH]c3ccc(Cl)cc23)C1CC(C)SC` (stereo not shown) [Compound 442], the EC50 lay in the range of 8 to 40 nM.

In the case of `CNc1ncc(C2c3[nH]c4ccc(Br)cc4c3CCN2c2ncccn2)cn1` (stereo not shown) [Compound 443], the EC50 fell in the range of 8 to 40 nM.

Molecule `O=C(Oc1ccc(Cl)cc1)N1CCc2c([nH]c3ccc(Cl)cc23)C1c1ccc(F)cc1` (stereo not shown) [Compound 444] gave a concentration for a half-maximal effect (EC50) of 8 to 40 nM.

In the case of `COc1ccc(OC(=O)N2CCc3c([nH]c4ccc(Cl)cc34)C2c2cnc(N(C)C)nc2)cc1` (stereo not shown) [Compound 445], the EC50 is 8 to 40 nM.

Regarding `COc1ccc(C2c3[nH]c4ccc(Cl)cc4c3CCN2C(=O)Cc2ccc(Cl)cc2)cc1` (stereo not shown) [Compound 447], the EC50 fell in the range of 8 to 40 nM.

The molecule `CCOC(=O)N1CCc2c([nH]c3ccc(Cl)cc23)C1c1ccc(OCCCN2CCCC2)cc1` (stereo not shown) [Compound 449] showed an EC50 of 8 to 40 nM.
